Laboratory results as given in US4904658A, “Substituted-6H,8H-pyrimido-[1,2,3-cd]purine-8,10-(9H)-diones and substituted-6H,10H-pyrimido[1,2-cd]purin-10-ones” (American Cyanamid Company, priority 1988, dated 1990).

How the values were obtained:
[1] = Hypoxic Survival Test in mice; type: in vivo, Royal Hart mice; conditions: survival after 5 minutes; for % Survivors: 30 min before hypoxia
Method: A useful in vivo test that measures how effectively central nervous system-acting drugs enhance survival in a hypoxic environment, presumably by improving the ratio of energy supply to demand is known as the Hypoxic Survival Test. […] Drugs are tested by intraperitoneally injecting groups of mice 30 minutes prior to placing them in a hypoxic mixture and measuring survival. The rationale of this test is that drugs which enhance survival under hypoxic conditions without concomitant, depression or sedative side effects, may do so by enhancing energy metabolism, or by preserving normal brain function under conditions of reduced energy metabolism. Given the dependence of the brain on a constant supply of energy, drugs which have this property may have many far-reaching therapeutic indications, including recovery from stroke and closed head injury, as well as reducing the deleterious effects of the aging central nervous system.
Groups of 20 Royal Hart mice (6 weeks of age) are injected intraperitoneally with test compound (1-200 mg/kg) 30 minutes prior to placing them in a hypoxic mixture (10% oxygen in 90% […]) and measuring survival after 5 minutes.
A separate group of 20 mice is injected intraperitoneally with saline solution (0.01 cc/g of body weight) and processed as described above.
Still another group of 20 mice is injected intraperitoneally with 0.125 mg/kg of physostigmine and processed as described above.

[2] = Reduction of mean arterial blood pressure in spontaneously hypertensive rats; type: in vivo, spontaneously hypertensive rats of the Okamoto strain; conditions: gavage, 100 mg/kg or less, two doses 24 h apart, measured at 28 hours; average mean arterial blood pressure of the rats 160 mm Hg
Method: Certain of the novel compounds of the present invention are active hypotensive agents at non-toxic doses when administered to mammals. These compounds were tested for hypotensive activity by the method of P. S. Chan and D. Poorvin, Clinical and Experimental Hypertension, 1 (6), 817-830 (1979). Male, 16 week old, spontaneously hypertensive rats of the Okamoto strain having an average mean arterial blood pressure of 160+1.5 mm of mercury are used in the test. One to 3 rats are used per test compound. A rat is dosed by gavage with a test compound, suspended in 2% pre-boiled starch at a concentration of 50 mg/ml, at a dose of 100 mg/kg of body weight or less, with 0.9% sodium chloride loading at a dose of 25 ml/kg of body weight. A second identical dose of the test compound, without sodium chloride loading is given 24 hours later. At 28 hours after the initial dose the mean arterial blood pressure is measured by the method of Chan and Poorvin vide supra. The procedure is repeated in a second and third rat when necessary.

[3] = Passive Avoidance Anoxic Induced Amnesia Test in mice; type: in vivo, Swiss-Webster mice; conditions: vs saline control, 30% considered active
Source text: Another in vivo test associated with decreased neural function in mammals is the Passive Avoidance Anoxic Induced Amnesia Test. This test is used to determine the attenuation of anoxic induced amnesia in mice treated with drug, as compared to saline treated control animals with no drug.
A shock-motivated, single trial, step-through passive avoidance procedure is used. Groups of 25 Swiss-Webster, middle-aged mice (9 months of age) are placed singly in the front chamber of a 2-chamber box and are allowed to voluntarily cross into the rear chamber. As soon as the mouse enters the rear chamber, a door automatically traps the animal and a mild electric shock (0.4 mA for 4 seconds) is delivered to its feet. Following the foot shock, the mice are initially placed in an anoxic environment (0% oxygen) for 12 seconds, which quickly induces unconsciousness. They are then placed in an hypoxic environment (15% oxygen) for four minutes which prolongs the oxygen deprived state, maintaining unconsciousness. All testing is performed 24 hours later, and in all cases the mice appear fully recovered from the previous anoxic/hypoxic treatment. All test compounds are administered intraperitoneally at a dose of 10-200 mg/kg, 30 minutes prior to training and testing. Control animals are injected intraperitoneally only with saline at 0.01 cc/g of body weight.
The latency to enter the rear chamber is recorded for both training and testing. Presumably, the more the animal remembers being shocked, the greater it will inhibit going into the rear chamber and the higher will be its latency to re-enter. An improvement of 30% over saline control scores is considered active.

[4] = test system: brain-specific receptors of rats (3H-benzodiazepine binding); assay: Inhibition of the binding of 3H-benzodiazepine to brain-specific receptors of rats; set-up: species or system rat (Wistar strain); conditions: rat cortex P2 fraction; 3H-diazepam 1.5 nM or 3H-flunitrazepam 1.0 nM; test concentration not given; 12% or more is active
Source text: A test utilized for the determination of anxiolytic activity is the measurement of the ability of test compounds to inhibit the binding of tritiated benzodiazepines to brain-specific receptors of warm-blooded animals. A modification of the method described by R. F. Squires, et al., Nature, 266, No. 21, pg 732 (Apr. 1977) and H. Mohler, et al., Science, 198, pg 849 (1977) was employed.
Male albino rats (Wistar strain, weighing 150-200 g each) were used. The test compounds were solubilized in either dimethylformamide, acetic acid, ethanol or hydrochloric acid.
Whole cortex of rats was homogenized gently in 20 volumes of ice-cold 0.32 M sucrose, centrifuged twice at 1000 g for 10 minutes and then recentrifuged at 30,000 g for 20 minutes to produce a crude P2 -synaptosomal fraction. The P2 -fraction was either: (1) resuspended in twice the original volume in hypotonic 50 mM Tris.HCl (pH 7.4), or (2) resuspended in one-half the original volume in hypotonic 10 mM Tris.HCl (pH 7.4) and frozen (-20° C.) until time of use. Frozen P2 preparations were thawed and resuspended in four times the original homogenizing volume at time of assay.
The binding assay consisted of 300 μl of the P2 -fraction suspension (0.2-0.4 mg protein), 100 μl of test drug and 100 μl of ^3 H-diazepam (1.5 nM, final concentration) or ^3 H-flunitrazepam (1.0 nM, final concentration) which was added to 1.5 ml of 50 mM Tris.HCl (pH 7.4). Non-specific binding controls and total binding controls received 100 μl of diazepam (3 μM final concentration) and 100 μl of deionized water, respectively, in place of the test compound. Incubation for 30 minutes proceeded in ice and was terminated by filtration, under vacuum, through glass fiber filters. […] After drying at 50°-60° C. for 30 minutes, 10 ml of diluent was added and the radioactivity determined in a scintillation counter.
Inhibition of binding was calculated by the difference between total binding and binding in the presence of test compound, divided by the total binding, X 100. […]

Q: For `CNC(=O)Oc1ccc2c(c1)[C@]1(C)CCN(C)[C@@H]1N2C` [physostigmine, reference compound], which “physostigmine treated mice surviving” value ([1]; 10% oxygen, 0.125 mg/kg i.p., saline controls 5-20%) is on record?
A: 60-80%

Q: Which “% Survivors” value ([1]; 200 mg/kg i.p.) does the source give for `O=c1[nH]c(=O)n2c3c1ncn3C(c1cccc([N+](=O)[O-])c1)=CC2` [4-(3-Nitrophenyl)-6H,8H-pyrimido[1,2,3-cd]purine-8,10(9H)-dione] here?
A: 47%

Q: Which “Mean arterial blood pressure” value [2] does the source give for `O=c1[nH]c(=O)n2c3c1ncn3C(c1cccnc1)=CC2` [4-(3-Pyridinyl)-6H,8H-pyrimido[1,2,3-cd]purine-8,10(9H)-dione] here?
A: 127 mm Hg

Q: For `O=c1[nH]c(=O)n2c3c1ncn3C(c1cccc(Cl)c1)=CC2` [4-(3-Chlorophenyl)-6H,8H-pyrimido[1,2,3-cd]purine-8,10(9H)-dione], which “% Improvement” value ([3]; 25 mg/kg i.p.) is on record?
A: 42%

Q: What about the “% Improvement” value ([3]; 50 mg/kg i.p.) of the same molecule?
A: 43%

Q: With `O=c1c2ncn3c2n(c(=O)n1Cc1ccccc1)CC=C3c1cccc(C(F)(F)F)c1` [9-(Phenylmethyl)-4-[3-(trifluoromethyl)phenyl]-6H,8H-pyrimido[1,2,3-cd]purine-8,10(9H)-dione] as the molecule, how does the “Mean arterial blood pressure” value [2] read?
A: 132 mm Hg

Q: Which “% Inhibition of the binding of 3H-benzodiazepine” value [4] does the source give for `CCn1c(=O)c2ncn3c2n(c1=O)CC=C3c1cccc(C(F)(F)F)c1` [9-Ethyl-4-[3-(trifluoromethyl)phenyl]-6H,8H-pyrimido[1,2,3-cd]purine-8,10(9H)-dione] here?
A: 17%

Q: Which “Mean arterial blood pressure” value [2] does the source give for `Cc1ccc(C2=CCn3c(=O)[nH]c(=O)c4ncn2c43)cc1` [4-(4-Methylphenyl)-6H,8H-pyrimido[1,2,3-cd]purine-8,10(9H)-dione] here?
A: 127 mm Hg

Q: What does the source list for `O=c1[nH]c(=O)n2c3c1ncn3C(c1cccc(C(F)(F)F)c1)=CC2` [4-[3-(Trifluoromethyl)phenyl]-6H,8H-pyrimido[1,2,3-cd]purine-8,10(9H)-dione]?
A: % Inhibition of the binding of 3H-benzodiazepine [4]: 54%; % Improvement ([3]; 50 mg/kg i.p.): 144%; % Improvement ([3]; 100 mg/kg i.p.): 44%

Q: For `Cn1c(=O)c2ncn3c2n(c1=O)CC=C3c1cccc(C(F)(F)F)c1` [9-Methyl-4-[3-(trifluoromethyl)phenyl]-6H,8H-pyrimido[1,2,3-cd]purine-8,10(9H)-dione], which “% Improvement” value ([3]; 10 mg/kg i.p.) is on record?
A: 66%

Q: What about the “% Improvement” value ([3]; 25 mg/kg i.p.) of the same molecule?
A: 69%

Q: And the “% Improvement” value ([3]; 50 mg/kg i.p.)?
A: 56%

Q: And the “% Improvement” value ([3]; 100 mg/kg i.p.)?
A: 39%

Q: For `O=c1[nH]c(=O)n2c3c1ncn3C(c1ccc(N3CCOCC3)cc1)=CC2` [4-[4-(4-Morpholinyl)phenyl]-6H,8H-pyrimido[1,2,3-cd]purine-8,10(9H)-dione], which “% Survivors” value ([1]; 100 mg/kg i.p.) is on record?
A: 55%

Q: What about the “% Improvement” value ([3]; 25 mg/kg i.p.) of the same molecule?
A: 34%

Q: Which “% Inhibition of the binding of 3H-benzodiazepine” value [4] does the source give for `CSc1nc(=O)c2ncn3c2n1CC=C3c1ccccc1` [8-(Methylthio)-4-phenyl-6H,10H-pyrimido[1,2-cd]-purin-10-one] here?
A: 13%
